{"source": "patent US8846686B2", "about": "“Compounds useful as inhibitors of ATR kinase” (Vertex Pharmaceuticals Incorporated, priority 2011, dated 2014)", "key": {"[1]": {"system": "HCT116 colorectal cancer cells", "test": "Single agent HCT116 activity, 96 h cell viability (MTS) assay", "type": "cell-based", "settings": "Homo sapiens, HCT-116; 96 h MTS cell viability; read-out: Single agent HT116 IC50", "method": "Compounds can be screened for single agent activity against HCT116 colorectal cancer cells using a 96 h cell viability (MTS) assay. HCT116 are plated at 470 cells per well in 96-well polystyrene plates (Costar 3596) in 150 μl of McCoy's 5A media (Sigma M8403) supplemented with 10% foetal bovine serum (JRH Biosciences 12003), Penicillin/Streptomycin solution diluted 1:100 (Sigma P7539), and 2 mM L-glumtamine (Sigma G7513), and allowed to adhere overnight at 37° C. in 5% CO2. Compounds are then added to the cell media in 2-fold serial dilutions from a top final concentration of 10 μM as a full matrix of concentrations in a final cell volume of 200 μl, and the cells are then incubated at 37° C. in 5% CO2. After 96 h, 40 μl of MTS reagent (Promega G358a) is added to each well and the cells are incubated for 1 h at 37° C. in 5% CO2. Finally, absorbance is measured at 490 nm using a SpectraMax Plus 384 reader (Molecular Devices) and IC50 values can be calculated."}, "[2]": {"target": "T1, full-length ATR (Homo sapiens, UniProt Q13535)", "T1 construct": "Assays are carried out at 25° C. in the presence of 5 nM full-length ATR", "T1 sequence (Q13535 whole entry)": "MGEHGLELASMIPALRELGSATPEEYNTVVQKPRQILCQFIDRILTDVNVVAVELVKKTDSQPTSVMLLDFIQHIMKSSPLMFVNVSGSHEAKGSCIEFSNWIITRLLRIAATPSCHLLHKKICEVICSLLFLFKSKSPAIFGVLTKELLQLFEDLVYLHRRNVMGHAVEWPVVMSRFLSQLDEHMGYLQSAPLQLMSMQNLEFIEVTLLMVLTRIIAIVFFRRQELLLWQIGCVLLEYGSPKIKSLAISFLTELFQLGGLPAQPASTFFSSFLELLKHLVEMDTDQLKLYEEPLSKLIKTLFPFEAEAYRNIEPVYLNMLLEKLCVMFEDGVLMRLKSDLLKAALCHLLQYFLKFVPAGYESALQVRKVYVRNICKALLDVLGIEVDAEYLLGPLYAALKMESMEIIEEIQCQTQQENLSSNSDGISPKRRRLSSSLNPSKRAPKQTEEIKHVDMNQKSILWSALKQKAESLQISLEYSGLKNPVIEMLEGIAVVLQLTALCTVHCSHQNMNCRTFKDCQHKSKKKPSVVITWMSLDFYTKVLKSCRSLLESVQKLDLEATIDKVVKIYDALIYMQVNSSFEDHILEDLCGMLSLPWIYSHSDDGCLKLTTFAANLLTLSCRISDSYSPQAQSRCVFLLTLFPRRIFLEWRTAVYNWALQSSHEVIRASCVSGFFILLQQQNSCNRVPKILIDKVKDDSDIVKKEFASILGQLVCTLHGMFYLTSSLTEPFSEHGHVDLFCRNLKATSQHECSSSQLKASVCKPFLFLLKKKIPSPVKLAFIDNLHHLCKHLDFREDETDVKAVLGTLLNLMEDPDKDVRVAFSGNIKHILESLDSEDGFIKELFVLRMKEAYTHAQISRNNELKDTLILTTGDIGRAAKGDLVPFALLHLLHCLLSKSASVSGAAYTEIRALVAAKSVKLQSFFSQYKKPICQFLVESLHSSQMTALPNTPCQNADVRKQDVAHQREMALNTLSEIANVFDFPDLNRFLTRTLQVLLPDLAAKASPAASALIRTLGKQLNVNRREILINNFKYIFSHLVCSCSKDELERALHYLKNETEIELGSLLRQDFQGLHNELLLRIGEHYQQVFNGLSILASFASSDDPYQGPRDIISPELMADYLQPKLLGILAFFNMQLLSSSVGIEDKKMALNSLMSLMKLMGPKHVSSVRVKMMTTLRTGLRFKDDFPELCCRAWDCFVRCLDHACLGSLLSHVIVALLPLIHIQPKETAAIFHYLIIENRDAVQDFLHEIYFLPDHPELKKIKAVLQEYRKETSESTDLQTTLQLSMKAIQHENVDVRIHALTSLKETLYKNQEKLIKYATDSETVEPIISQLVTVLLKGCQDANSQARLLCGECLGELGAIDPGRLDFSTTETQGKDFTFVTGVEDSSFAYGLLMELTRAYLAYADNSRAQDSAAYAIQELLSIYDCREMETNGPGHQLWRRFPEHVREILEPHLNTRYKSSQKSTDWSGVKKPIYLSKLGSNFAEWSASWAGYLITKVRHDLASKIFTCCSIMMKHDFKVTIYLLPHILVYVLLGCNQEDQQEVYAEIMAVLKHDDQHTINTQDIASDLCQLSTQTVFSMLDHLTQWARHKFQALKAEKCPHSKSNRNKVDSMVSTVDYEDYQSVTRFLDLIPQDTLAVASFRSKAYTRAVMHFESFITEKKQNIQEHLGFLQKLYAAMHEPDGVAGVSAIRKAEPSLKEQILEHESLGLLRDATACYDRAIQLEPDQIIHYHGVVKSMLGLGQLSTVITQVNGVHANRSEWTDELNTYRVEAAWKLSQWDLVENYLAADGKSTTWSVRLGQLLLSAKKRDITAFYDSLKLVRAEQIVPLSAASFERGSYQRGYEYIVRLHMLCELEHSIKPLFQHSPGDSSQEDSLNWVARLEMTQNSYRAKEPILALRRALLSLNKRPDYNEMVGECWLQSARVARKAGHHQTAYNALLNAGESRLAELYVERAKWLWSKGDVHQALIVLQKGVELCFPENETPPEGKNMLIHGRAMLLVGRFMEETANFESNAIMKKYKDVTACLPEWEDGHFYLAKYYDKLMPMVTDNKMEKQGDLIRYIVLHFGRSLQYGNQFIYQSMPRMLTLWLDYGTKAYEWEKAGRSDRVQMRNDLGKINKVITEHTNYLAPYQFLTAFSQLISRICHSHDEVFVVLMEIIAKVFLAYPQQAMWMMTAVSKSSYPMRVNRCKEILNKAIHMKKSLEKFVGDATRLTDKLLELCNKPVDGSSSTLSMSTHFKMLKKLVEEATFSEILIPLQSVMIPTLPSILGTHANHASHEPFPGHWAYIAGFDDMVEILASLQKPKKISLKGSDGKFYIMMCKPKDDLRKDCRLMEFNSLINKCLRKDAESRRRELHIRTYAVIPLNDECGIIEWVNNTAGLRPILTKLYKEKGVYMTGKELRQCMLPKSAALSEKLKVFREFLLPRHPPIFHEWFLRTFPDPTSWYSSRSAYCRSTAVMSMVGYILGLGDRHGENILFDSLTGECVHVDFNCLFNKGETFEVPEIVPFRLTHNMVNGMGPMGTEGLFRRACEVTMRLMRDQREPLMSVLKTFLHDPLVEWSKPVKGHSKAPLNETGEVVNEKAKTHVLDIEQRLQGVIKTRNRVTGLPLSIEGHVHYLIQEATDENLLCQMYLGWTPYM", "test": "ATR inhibition assay (radioactive-phosphate incorporation)", "type": "biochemical", "settings": "Ki(app), 5 nM full-length ATR, 10 μM ATP", "method": "Compounds can be screened for their ability to inhibit ATR kinase using a radioactive-phosphate incorporation assay. Assays are carried out in a mixture of 50 mM Tris/HCl (pH 7.5), 10 mM MgCl2 and 1 mM DTT. Final substrate concentrations are 10 μM [γ-33P]ATP (3 mCi ^33P ATP/mmol ATP, Perkin Elmer) and 800 μM target peptide (ASELPASQPQPFSAKKK (SEQUENCE ID NO: 1)).\nAssays are carried out at 25° C. in the presence of 5 nM full-length ATR. An assay stock buffer solution is prepared containing all of the reagents listed above, with the exception of ATP and the test compound of interest. 13.5 μL of the stock solution is placed in a 96 well plate followed by addition of 2 μL of DMSO stock containing serial dilutions of the test compound (typically starting from a final concentration of 15 μM with 3-fold serial dilutions) in duplicate (final DMSO concentration 7%). The plate is pre-incubated for 10 minutes at 25° C. and the reaction initiated by addition of 15 μL [γ-33P]ATP (final concentration 10 μM).\nThe reaction is stopped after 24 hours by the addition of 30 μL 0.1M phosphoric acid containing 2 mM ATP. A multiscreen phosphocellulose filter 96-well plate (Millipore, Cat no. MAPHN0B50) is pretreated with 100 μL 0.2M phosphoric acid prior to the addition of 45 μL of the stopped assay mixture. The plate is washed with 5×200 μL 0.2M phosphoric acid. After drying, 100 μL Optiphase ‘SuperMix’ liquid scintillation cocktail (Perkin Elmer) is added to the well prior to scintillation counting (1450 Microbeta Liquid Scintillation Counter, Wallac).\nAfter removing mean background values for all of the data points, Ki(app) data are calculated from non-linear regression analysis of the initial rate data using the Prism software package (GraphPad Prism version 3.0cx for Macintosh, GraphPad Software, San Diego Calif., USA)."}, "[3]": {"system": "HCT116 colorectal cancer cells", "test": "Cisplatin sensitization assay, 96 h cell viability (MTS)", "type": "cell-based", "settings": "concentration of compound required to reduce the IC50 of Cisplatin alone by at least 3-fold; HCT116, 96 h", "method": "Compounds can be screened for their ability to sensitize HCT116 colorectal cancer cells to Cisplatin using a 96 h cell viability (MTS) assay. […] Compounds and Cisplatin are then both added simultaneously to the cell media in 2-fold serial dilutions from a top final concentration of 10 μM as a full matrix of concentrations in a final cell volume of 200 μl, and the cells are then incubated at 37° C. in 5% CO2. After 96 h, 40 μl of MTS reagent (Promega G358a) is added to each well and the cells are incubated for 1 h at 37° C. in 5% CO2. Finally, absorbance is measured at 490 nm using a SpectraMax Plus 384 reader (Molecular Devices) and the concentration of compound required to reduce the IC50 of Cisplatin alone by at least 3-fold (to 1 decimal place) can be reported."}, "[4]": {"target": "T2, intracellular ATR (Homo sapiens, UniProt Q13535)", "T2 construct": "endogenous in cells; host or cells: HT29", "T2 sequence (Q13535 whole entry)": "as above", "T2 sequence (Q8WXE1 whole entry partner)": "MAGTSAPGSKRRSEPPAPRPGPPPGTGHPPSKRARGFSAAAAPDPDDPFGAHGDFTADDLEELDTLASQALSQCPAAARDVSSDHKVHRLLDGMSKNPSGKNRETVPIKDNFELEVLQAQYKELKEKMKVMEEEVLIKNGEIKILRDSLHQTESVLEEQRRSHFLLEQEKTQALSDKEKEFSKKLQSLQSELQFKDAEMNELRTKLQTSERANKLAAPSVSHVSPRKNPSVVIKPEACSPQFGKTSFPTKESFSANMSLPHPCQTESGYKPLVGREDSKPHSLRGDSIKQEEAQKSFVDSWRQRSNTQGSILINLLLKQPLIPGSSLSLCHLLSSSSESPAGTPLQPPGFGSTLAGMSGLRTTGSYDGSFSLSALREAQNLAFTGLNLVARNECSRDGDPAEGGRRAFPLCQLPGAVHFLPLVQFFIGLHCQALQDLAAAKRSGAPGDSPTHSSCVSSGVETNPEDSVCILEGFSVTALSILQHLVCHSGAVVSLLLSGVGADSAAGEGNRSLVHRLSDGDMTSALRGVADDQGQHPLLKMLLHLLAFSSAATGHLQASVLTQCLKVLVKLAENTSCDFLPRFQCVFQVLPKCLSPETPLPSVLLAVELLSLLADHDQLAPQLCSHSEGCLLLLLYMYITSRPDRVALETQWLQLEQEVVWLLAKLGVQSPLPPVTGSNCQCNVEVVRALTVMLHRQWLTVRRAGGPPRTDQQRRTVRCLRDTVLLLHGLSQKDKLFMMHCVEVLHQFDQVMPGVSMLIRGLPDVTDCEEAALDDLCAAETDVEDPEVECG", "test": "Cellular ATR inhibition assay (H2AX phosphorylation in hydroxyurea treated HT29 cells)", "type": "cell-based", "settings": "2 mM hydroxyurea, phosphorylated H2AX-positive nuclei", "method": "Compounds can be screened for their ability to inhibit intracellular ATR using an immunofluorescence microscopy assay to detect phosphorylation of the ATR substrate histone H2AX in hydroxyurea treated cells. HT29 cells are plated at 14,000 cells per well in 96-well black imaging plates (BD 353219) in McCoy's 5A media (Sigma M8403) supplemented with 10% foetal bovine serum (JRH Biosciences 12003), Penicillin/Streptomycin solution diluted 1:100 (Sigma P7539), and 2 mM L-glumtamine (Sigma G7513), and allowed to adhere overnight at 37° C. in 5% CO2. Compounds are then added to the cell media from a final concentration of 25 μM in 3-fold serial dilutions and the cells are incubated at 37° C. in 5% CO2. After 15 min, hydroxyurea (Sigma H8627) is added to a final concentration of 2 mM.\nAfter 45 min of treatment with hydroxyurea, the cells are washed in PBS, fixed for 10 min in 4% formaldehyde diluted in PBS (Polysciences Inc 18814), washed in 0.2% Tween-20 in PBS (wash buffer), and permeabilised for 10 min in 0.5% Triton X-100 in PBS, all at room temperature. The cells are then washed once in wash buffer and blocked for 30 min at room temperature in 10% goat serum (Sigma G9023) diluted in wash buffer (block buffer). […]\nCells are imaged for Alexa Fluor 488 and Hoechst intensity using the BD Pathway 855 Bioimager and Attovision software (BD Biosciences, Version 1.6/855) to quantify phosphorylated H2AX Ser139 and DNA staining, respectively. The percentage of phosphorylated H2AX-positive nuclei in a montage of 9 images at 20× magnification is then calculated for each well using BD Image Data Explorer software (BD Biosciences Version 2.2.15). […] The percentage of H2AX positive nuclei is finally plotted against concentration for each compound and IC50s for intracellular ATR inhibition are determined using Prism software (GraphPad Prism version 3.0cx for Macintosh, GraphPad Software, San Diego Calif., USA)."}, "[5]": {"test": "Pharmacokinetics (noncompartmental, blood or plasma)", "settings": "in vivo, intravenous (IV) dosing", "description": "Noncompartmental pharmacokinetic parameters can be analyzed using Watson Bioanalytical LIMS (Version 7.4; Thermo Fisher Scientific) from either the blood or plasma samples. The following parameters are estimated following intravenous (IV) dosing; terminal elimination half-life (T1/2=ln(2)/λz, where λz is the first order rate constant associated with the terminal (log-linear) portion of the curve. The area under the curve (AUClast=area under the curve from the time of dosing to the last measurable concentration). The area under the curve extrapolated to infinity (AUC0-∞=AUClast+Clast/λz). The clearance (Cl; Cl=DoseIV/AUC0-∞).\nThe area under the first moment curve (AUMClast=area under the concentration times time versus time curve from the time of dosing to the last measurable concentration). The area under the first moment curve extrapolated to infinity (AUMC0-∞=AUMClast+Clast×t/λz+Clast/λz^2). The mean residence time (MRT=AUMC0-∞/AUC0-∞) and the steady state volume of distribution (Vdss=MRT×Cl).\nClearance and volume of distribution can also be obtained using methods known to one of skill in the art (see e.g., Handbook of Essential Pharmacokinetics, Pharmacodynamics and Drug Metabolism for Industrial Scientists, Younggil Kwon, pp 18-28 (Non-compartmental Approach))."}, "[6]": {"system": "primary NSCLC model", "test": "Primary non-small cell lung cancer (NSCLC) model with cisplatin as the DNA damaging agent", "type": "in vivo, mouse", "description": "(§1) T/C=tumour size of treatment group compared with control group"}, "[7]": {"test": "Mouse PO/PK in tumor (FIG. 6)", "type": "in vivo", "settings": "mouse grafted with tumors, compared with Compound P-110", "description": "FIG. 6: Mouse PO/PK in tumor"}, "[8]": {"system": "Colo205 model", "test": "COLO205 model with irinotecan as the DNA damaging agent", "type": "in vivo, mouse", "description": "as §1"}}, "data": [{"smiles": "CC(C)S(=O)(=O)c1ccc(-c2cnc(N)c(-c3cc(-c4ccc(CN[C@H]5CCOC5)cc4)no3)n2)cc1", "note": "[P-110 (S), reference compound]", "values": [{"measurement": "IC50", "setting": "[1]", "result": 280, "unit": "nM"}, {"measurement": "Ki", "setting": "[2]", "result": 0.26, "unit": "nM"}, {"measurement": "Cisplatin sensitization", "setting": "[3]", "result": 156, "unit": "nM"}, {"measurement": "IC50", "setting": "[4]", "result": 46, "unit": "nM"}]}, {"smiles": "[2H]C([2H])([2H])C([2H])(C([2H])([2H])[2H])S(=O)(=O)c1ccc(-c2cnc(N)c(-c3cc(-c4ccc(CNC5CCOCC5)cc4)no3)n2)cc1", "note": "[Compound II-2, 5-[4-[1,2,2,2-tetradeuterio-1-(trideuteriomethyl)ethyl]sulfonylphenyl]-3-[3-[4-[(tetrahydropyran-4-ylamino)methyl]phenyl]isoxazol-5-yl]pyrazin-2-amine]", "values": [{"measurement": "IC50", "setting": "[1]", "result": 59, "unit": "nM"}, {"measurement": "Ki", "setting": "[2]", "result": 0.105, "unit": "nM"}, {"measurement": "Cisplatin sensitization", "setting": "[3]", "result": 39, "unit": "nM"}]}, {"smiles": "CC(C)S(=O)(=O)c1ccc(-c2cnc(N)c(-c3cc(-c4ccc(CN[C@@H]5CCOC5)cc4)no3)n2)cc1", "note": "[P-110 (R), reference compound]", "values": [{"measurement": "clearance", "setting": "[5]", "result": 12.7, "unit": "mL/min/kg"}, {"measurement": "half-life", "setting": "[5]", "result": 2.7, "unit": "h"}, {"measurement": "IC50", "setting": "[1]", "result": 205, "unit": "nM"}, {"measurement": "Ki", "setting": "[2]", "result": 0.29, "unit": "nM"}, {"measurement": "Cisplatin sensitization", "setting": "[3]", "result": 78, "unit": "nM"}, {"measurement": "IC50", "setting": "[4]", "result": 54, "unit": "nM"}]}, {"smiles": "CC(C)S(=O)(=O)c1ccc(-c2cnc(N)c(-c3cc(-c4ccc(CNC5CCOCC5)cc4)no3)n2)cc1", "note": "[Compound I-1]", "values": [{"measurement": "Effect on tumors", "setting": "[6]; cisplatin 3 mg/kg, compound 30 mg/kg uid q2d", "result": "marked regression of tumors"}, {"measurement": "% T/C (tumour size of treatment group compared with control group)", "setting": "[6]; day 20, cisplatin 3 mg/kg, compound 30 mg/kg uid q2d", "result": 1.7, "unit": "%"}, {"measurement": "clearance", "setting": "[5]", "result": 7.1, "unit": "mL/min/kg"}, {"measurement": "half-life", "setting": "[5]", "result": 4.7, "unit": "h"}, {"measurement": "Vd", "setting": "[5]; read-out: Vss", "result": 2.8, "unit": "L/kg"}, {"measurement": "IC50", "setting": "[1]", "result": 83, "unit": "nM"}, {"measurement": "Ki", "setting": "[2]", "result": 0.14, "unit": "nM"}, {"measurement": "Oral exposure in tumors", "setting": "[7]", "result": "created oral exposure in tumors compared with Compound P-110"}, {"measurement": "Cisplatin sensitization", "setting": "[3]", "result": 39, "unit": "nM"}, {"measurement": "IC50", "setting": "[4]", "result": 13, "unit": "nM"}, {"measurement": "% T/C (tumour size of treatment group compared with control group)", "setting": "[8]; day 13, irinotecan 20 mg/kg, compound 40 mg/kg PO qd3 of a four-day cycle, five cycles", "result": 10.9, "unit": "%"}, {"measurement": "Effect on tumors", "setting": "[8]; irinotecan 20 mg/kg, compound orally as a solution 40 mg/kg, PO qd3, five cycles", "result": "marked regression of tumors"}]}, {"smiles": "CC(C)S(=O)(=O)c1ccc(-c2cnc(N)c(-c3cc(-c4ccc(CN[C@H]5CCOC5)cc4)no3)n2)cc1", "note": "[Compound P-110, reference compound]", "values": [{"measurement": "Sensitisation", "setting": "[6]; same model (cisplatin), compound 30 mpk bid (on/1 day off)", "result": "no sensitisation"}, {"measurement": "Sensitization", "setting": "[8]; same model (irinotecan), compound 45 mg/kg twice a day (bid)", "result": "no sensitization"}]}]}
